According to patent US20160223554A1, “METHODS FOR DIAGNOSIS, PROGNOSIS AND METHODS OF TREATMENT” (priority 2011, published 2016):

Tests used:
AML blasts [1] = test: SCNP signaling and apoptosis nodes in AML BMMC (Example 4, Study No. 2); format: cell-based, human
AML blasts [2] = test: SCNP phospho-flow signaling nodes in AML PBMC (Example 2, Study No. 1); format: cell-based, human; conditions: for Mean Value of CRs: CR patients; for Mean Value of CRs / Mean Value of NRs: Study No. 1; for Mean Value of NRs: NR patients
Protocol: Frozen cells are thawed in a 37° C. water bath and gently resuspended in the vial and transferred to the 15 mL conical tube. The 15 mL tube is centrifuged at 930 RPM (200×g) for 8 minutes at room temperature. The supernatant is aspirated and the pellet is gently resuspended in 1 mL media A. The cell suspension is filtered through a 70 um cell strainer into a new 15 mL tube. The cell strainer is rinsed with 1 mL media A and another 12 ml of media A into the 15 mL tube. The cells are mixed into an even suspension. A 20 μL aliquot is immediately removed into a 96-well plate containing 180 μL PBS+4% FBS+CD45 Alexa 700+PI to determine cell count and viability post spin. After the determination, the 15 mL tubes are centrifuged at 930 RPM (200×g) for 8 minutes at room temperature. The supernatant is aspirated and the cell pellet is gently resuspended in 4 mL PBS+4 μL Amine Aqua and incubated for 15 min in a 37° C. incubator. 10 mL RPMI+1% FBS is added to the cell suspension and the tube is inverted to mix the cells. The 15 mL tubes are centrifuged at 930 RPM (200×g) for 8 minutes at room temperature. The cells are resuspended in Media A at the desired cell concentration (1.25×10^6/mL). For samples with low numbers of cells (<18.5×10^6), the cells are resuspended in up to 15 mL media. For samples with high numbers of cells (>18.5×10^6), the volume is raised to 10 mL with media A and the desired volume is transferred to a new 15 mL tube, and the cell concentration is adjusted to 1.25×10^6 cells/ml. 1.6 mL of the above cell suspension (concentration at 1.25×10^6 cells/ml) is transferred into wells of a multi-well plate. From this plate, 80 ul is dispensed into each well of a subsequent plate. The plates are covered with a lid (Nunc) and placed in a 37° C. incubator for 2 hours to rest.
A concentration for each stimulant that is five folds more (5×) than the final concentration is prepared using Media A as diluent. 5× stimuli are arrayed into wells of a standard 96 well v-bottom plate that correspond to the wells on the plate with cells to be stimulated.
Adding the stimulant: The cell plate(s) are taken out of the incubator and placed in a 37° C. water bath next to the pipette apparatus. The cell plate is taken from the water bath and gently swirled to resuspend any settled cells. With pipettor, the stimulant is dispensed into the cell plate and vortexed at “7” for 5 seconds. The deep well plate is put back into the water bath.
The plate is covered with foil sealer and incubated in a 37° C. water bath for 10 minutes. The plate is spun for 6 minutes at 2000 rpm at room temperature. The cells are aspirated using a 96 well plate aspirator (VP Scientific). The plate is vortexed to resuspend cell pellets in the residual volume. The pellet is ensured to be dispersed before the Methanol step (see cell permeabilization) or clumping will occur.
Cell Permeabilization: Permeability agent, for example methanol, is added slowly and while the plate is vortexing. To do this, the cell plate is placed on titer plate shaker and made sure it is secure. The plate is set to shake using the highest setting. A pipetter is used to add 0.6 mls of 100% methanol to the plate wells. The plate(s) are put on ice until this step has been completed for all plates. Plates are covered with a foil seal using the plate roller to achieve a tight fit. At this stage the plates can be stored at −80° C.
Cells are thawed if frozen. Cells are pelleted at 2000 rpm 5 minutes. Supernatant is aspirated with vacuum aspirator. Plate is vortexed on a “plate vortex” for 5-10 seconds. Cells are washed with 1 mL FACS buffer. Repeat the spin, aspirate and vortex steps as above. 50 μL of FACS/stain buffer with the desired, previously optimized, antibody cocktail is added to two rows of cells at a time and agitate the plate. The plate is covered and incubated in a shaker for 30 minutes at room temperature (RT). During this incubation, the compensation plate is prepared.

[3] = Fold metric, all patients, Study No. 2
[4] = Study No.2, patients age 60 and older
[5] = Fold metric, Study No. 1, CRp patient included in NR group
[6] = Study No.2, patients less than 60 years old
[7] = Study No.2, patients with De Novo AML
[8] = Total Phospho metric, Study No. 1, CRp patient included in NR group
[9] = read-out p-CREB, metric TotalPhospho
[10] = read-out p-S6, metric TotalPhospho
[11] = read-out p-Stat3, metric TotalPhospho
[12] = TotalPhospho metric, all patients, Study No. 2
[13] = read-out p-Stat1, metric TotalPhospho

Row | Molecule | Mean Value of CRs, p-Erk (AML blasts [1]; [3]) | Mean Value of NRs, p-Erk (AML blasts [1]; [3]) | Mean Value of CRs, p-CREB (AML blasts [2]; [8]) | Mean Value of NRs, p-CREB (AML blasts [2]; [8]) | Mean Value of CRs (AML blasts [2]; [9]) | Mean Value of NRs (AML blasts [2]; [9]) | Mean Value of CRs, p-Stat3 TotalPhospho (AML blasts [1]; [6]) | Mean Value of NRs, p-Stat3 TotalPhospho (AML blasts [1]; [6]) | Mean Value of CRs, p-Stat3 TotalPhospho (AML blasts [1]; [7]) | Mean Value of NRs, p-Stat3 TotalPhospho (AML blasts [1]; [7]) | Mean Value of CRs, p-Stat3 (AML blasts [2]; [8]) | Mean Value of NRs, p-Stat3 (AML blasts [2]; [8]) | Mean Value of CRs (AML blasts [2]; [11]) | Mean Value of NRs (AML blasts [2]; [11]) | Mean Value of CRs, p-Stat3 (AML blasts [1]; [3]) | Mean Value of CRs, p-Stat5 (AML blasts [1]; [3]) | Mean Value of NRs, p-Stat3 (AML blasts [1]; [3]) | Mean Value of NRs, p-Stat5 (AML blasts [1]; [3]) | Mean Value of CRs, p-Stat5 Fold (AML blasts [1]; [7]) | Mean Value of NRs, p-Stat5 Fold (AML blasts [1]; [7]) | also measured
1 | OO [H2O2, reference compound] | – | – | – | – | – | – | – | – | – | – | – | – | – | – | – | – | – | – | – | – | Mean Value of CRs, p-Akt (AML blasts [1]; [3]): 0.68; Mean Value of NRs, p-Akt (AML blasts [1]; [3]): 0.91; Mean Value of CRs, p-Akt Fold (AML blasts [1]; [4]): 0.45; Mean Value of CRs, p-Akt TotalPhospho (AML blasts [1]; [4]): 0.84; Mean Value of CRs, p-Plcγ2 TotalPhospho (AML blasts [1]; [4]): 1.19; Mean Value of NRs, p-Akt Fold (AML blasts [1]; [4]): 0.88; Mean Value of NRs, p-Akt TotalPhospho (AML blasts [1]; [4]): 1.33; Mean Value of NRs, p-Plcγ2 TotalPhospho (AML blasts [1]; [4]): 1.86; Mean Value of CRs (AML blasts [2]; read-out p-Lck, metric Fold): 0.42; Mean Value of NRs (AML blasts [2]; read-out p-Lck, metric Fold): 0.12; Mean Value of CRs (AML blasts [2]; read-out p-SLP 76, metric Fold): 1.35; Mean Value of NRs (AML blasts [2]; read-out p-SLP 76, metric Fold): 0.08
2 | CCCCCCCCCCCCCC(=O)O[C@@H]1[C@@H](C)[C@@]2(O)[C@@H](C=C(CO)C[C@]3(O)C(=O)C(C)=C[C@@H]23)[C@@H]2C(C)(C)[C@]12OC(C)=O [PMA, reference compound] | 2.82 | 1.74 | – | – | – | – | – | – | – | – | – | – | – | – | – | – | – | – | – | – | Mean Value of NRs, p-Erk (AML blasts [2]; [5]): 2.03
3 | C/C=C(/C)C(=O)O[C@H]1C(C)=C2[C@H]([C@@H]1OC(=O)CCCCCCC)[C@@](C)(OC(C)=O)C[C@H](OC(=O)CCC)[C@@]1(O)[C@H]2OC(=O)[C@@]1(C)O [Thapsigargin, reference compound] | 1.22 | 0.36 | 1.79 | 2.77 | 1.90 | 2.76 | – | – | – | – | – | – | – | – | – | – | – | – | – | – | Mean Value of CRs, p-CREB TotalPhospho (AML blasts [1]; [6]): 2.83; Mean Value of CRs, p-Erk Fold (AML blasts [1]; [6]): 1.28; Mean Value of NRs, p-CREB TotalPhospho (AML blasts [1]; [6]): 3.71; Mean Value of NRs, p-Erk Fold (AML blasts [1]; [6]): 0.40; Mean Value of CRs, p-Erk Fold (AML blasts [1]; [7]): 1.28; Mean Value of NRs, p-Erk Fold (AML blasts [1]; [7]): 0.27; Mean Value of CRs, p-S6 (AML blasts [2]; [5]): 0.03; Mean Value of NRs, p-S6 (AML blasts [2]; [5]): 0.31; Mean Value of CRs, p-S6 (AML blasts [2]; [8]): 0.31; Mean Value of NRs, p-S6 (AML blasts [2]; [8]): 0.67; Mean Value of CRs (AML blasts [2]; read-out p-S6, metric Fold): 0.04; Mean Value of NRs (AML blasts [2]; read-out p-S6, metric Fold): 0.32; Mean Value of CRs (AML blasts [2]; [10]): 0.31; Mean Value of NRs (AML blasts [2]; [10]): 0.68
4 | GM-CSF | – | – | – | – | – | – | 1.51 | 2.35 | 1.51 | 2.22 | 0.83 | 1.23 | 0.84 | 1.24 | – | – | – | – | – | – | –
5 | IL-6: cytokine modulator | – | – | 1.58 | 2.44 | 1.70 | 2.43 | 1.77 | 4.10 | 1.7 | 3.22 | 1.08 | 1.81 | 1.08 | 1.84 | 0.12 | 0.13 | 1.09 | 0.55 | 0.12 | 0.47 | Mean Value of CRs, p-Stat1 (AML blasts [1]; [3]): −0.01; Mean Value of NRs, p-Stat1 (AML blasts [1]; [3]): 0.26; Mean Value of CRs, p-Stat1 Fold (AML blasts [1]; [6]): −0.02; Mean Value of CRs, p-Stat3 Fold (AML blasts [1]; [6]): 0.13; Mean Value of CRs, p-Stat5 Fold (AML blasts [1]; [6]): 0.11; Mean Value of NRs, p-Stat1 Fold (AML blasts [1]; [6]): 0.3; Mean Value of NRs, p-Stat3 Fold (AML blasts [1]; [6]): 1.67; Mean Value of NRs, p-Stat5 Fold (AML blasts [1]; [6]): 0.58; Mean Value of CRs, p-Stat1 Fold (AML blasts [1]; [7]): 0.00; Mean Value of CRs, p-Stat1 TotalPhospho (AML blasts [1]; [7]): 1.06; Mean Value of NRs, p-Stat1 Fold (AML blasts [1]; [7]): 0.19; Mean Value of NRs, p-Stat1 TotalPhospho (AML blasts [1]; [7]): 1.67; Mean Value of CRs, p-Stat3 (AML blasts [1]; [12]): 1.76; Mean Value of NRs, p-Stat3 (AML blasts [1]; [12]): 2.98
6 | IL-10: cytokine modulator | – | – | – | – | – | – | 1.67 | 2.90 | 1.63 | 2.68 | 0.72 | 1.69 | 0.82 | 1.69 | 0.08 | 0.09 | 0.39 | 0.43 | 0.0 | 0.43 | Mean Value of CRs, p-Stat3 Fold (AML blasts [1]; [7]): 0.05; Mean Value of NRs, p-Stat3 Fold (AML blasts [1]; [7]): 0.45; Mean Value of CRs (AML blasts [2]; [13]): 0.20; Mean Value of NRs (AML blasts [2]; [13]): 0.47
